# Data taken from patent US20230020507A1, “COMPOUND AND USE THEREOF IN TREATING AUTOIMMUNE DISEASES” (PARENCHYMA BIOTECH INC., priority 2019, published 2023).
# Legend:
# [1] = tested on: IFN-γ, IL-17A, IL-1β, IL-10 and Foxp3 expression in spinal cord lesions; test: mRNA expression of inflammatory and immunomodulatory factors in spinal cord of EAE mice (real-time PCR); assay type: in vivo, mouse; conditions: 20 mg/kg i.p., 42nd day, compared to solvent control
# Text: On the 42nd day of the experiment, the spinal cord of the mouse was excised to prepare an mRNA sample. In order to extract mRNA, the spinal cord tissue was ground with a homogenizer to obtain a homogeneous suspension. […] Then, cDNA was synthesized from the isolated RNA by reverse transcription, and the expression of inflammatory cytokines was investigated through real-time polymerase chain reaction (PCR) using iQ SYBR-Green Supermix (Bio-rad) in the CFX96 (Bio-rad) detection system. Relative values of the enzyme expression levels were compared by the ΔΔct method using GAPDH as a control enzyme. Herein, one (1) fold was set using the WT mouse spinal cord as a control.
# (§1) The real-time polymerase chain reaction was implemented under the conditions of cycles at an annealing temperature of 58° C., and the following primer sequences were used.
# [2] = tested on: AOM/DSS-induced colon cancer in C57BL/6 mice; test: AOM/DSS-induced colon cancer mouse model, number of tumors per colon; assay type: in vivo; conditions: 20 mg/kg oral daily 7th to 21st day, 93rd day, solvent control 11.33±4.33
# Text: Sterile distilled water was provided for drinking from the 8th day of the experiment.
# [3] = tested on: C57BL/6 mice with graft-versus-host disease; test: Acute graft-versus-host disease model (allogeneic bone marrow transplantation), severity index; assay type: in vivo, mouse; conditions: 20 mg/kg intraperitoneally daily 4 to 9 days after transplantation; 14th day after transplantation; total of 10 points; solvent control 6.20±1.20
# Description: The spleen of Balb/c IFN-γ knockout mouse (8 to 12 weeks old, female, 18±3 g) was excised, pulverized by adding RPMI medium, and then passed through a 40 μm cell strainer (BD Falcon), thereby obtaining a single cell suspension. The single cell suspension was centrifuged (1200 rpm, 5 minutes), and after discarding the supernatant, 1 ml of ACK (ammonium chloride/potassium bicarbonate) lysis buffer (0.15 M NH4Cl, 1 mM KHCO3, 0.1 mM Na2EDTA) was added, followed by stirring for 1 minute and then washing the same with RPMI medium.
# Then, CD90.2^+ T cells were obtained from the cell suspension using Auto MACS pro (Miltenyi Biotec) (positive selection). To obtain bone marrow cells to be transplanted together with the obtained CD90.2^+ T cells, both femurs and tibias of wild-type Balb/c mice (8-12 weeks old, female, 18±3 g) were aseptically acquired. […]
# Normal C57BL/6 mice (9 to 11 weeks old, female, 19±3 g) were irradiated with 850 cGy of radiation divided at an interval of 3 hours by using a radiation irradiator. […] The graft-versus-host disease severity index was evaluated at an interval of 2 days by visual observation in a severity index system that was classified into a total of 10 points with 0 to 2 points for each item including reduction of body weight, hair condition, posture, activity and skin change.
# [4] = tested on: IL-6, IL-17A and IL-10 expression in lung tissue; test: mRNA expression of IL-6, IL-17A and IL-10 in lung tissue of GVHD mice (real-time PCR); assay type: in vivo, mouse; conditions: 20 mg/kg i.p., 15th day, compared to solvent control
# Text: On the 15th day of the experiment, the lungs of the mice were excised to prepare an mRNA sample. In order to extract mRNA, the […] was ground with a homogenizer to obtain a homogeneous suspension. […] Then, cDNA was synthesized from the isolated RNA by reverse transcription, and the expression of inflammatory cytokines was confirmed through real-time polymerase chain reaction (PCR) using iQ SYBR-Green Supermix (Bio-rad) in the CFX96 (Bio-rad) detection system. Relative values of the enzyme expression levels were compared by the ΔΔct method using GAPDH as a control enzyme. Herein, one (1) fold was set using the normal mouse […] as a control.
# as §1
# [5] = tested on: C57BL/6 mice with DSS-induced inflammatory bowel disease; test: Mucosal healing (intestinal epithelial barrier integrity) with FITC-dextran in DSS mice; assay type: in vivo, mouse; parameters: dose or concentration left out as unconfirmed; conditions: oral daily 2nd to 9th day, 10th day, 4 hours after FITC-dextran, compared to solvent control
# Text: The 1.5% DSS solution was changed at an interval of 2 days. Sterile distilled water was provided for drinking from the 8th day of the experiment.
# [6] = tested on: C57BL/6 mice with DSS-induced inflammatory bowel disease; test: DSS-induced inflammatory bowel disease model, severity index and colon weight:length ratio; assay type: in vivo, mouse; conditions: 20 mg/kg oral daily, compared to solvent control
# Description: The 1.5% DSS solution was changed at an interval of 2 days. Sterile distilled water was provided for drinking from the 8th day of the experiment. Body weight and severity index were measured at an interval of 2 days from the 0th day of the experiment in order to confirm the onset of inflammatory bowel disease.
# 20 mg/kg of the compound per mouse was completely dissolved in DMSO corresponding to 10% (v/v) of the administered dose, and then diluted in a cremophor EL-phosphate buffered saline mixture in order to produce the final DMSO:Cremophor EL:phosphate buffered saline (1:1:8, v/v/v), followed by oral administration of 200 μl daily for a total of 10 times from the 2nd to 11th days of the experiment. An inflammatory bowel disease severity index was visually observed and recorded at an interval of 2 days according to a severity index system classified into 0 to 10 levels.
# Inflammatory bowel disease symptoms were evaluated by summing the scores of three items according to the following items (Table 3).
# [7] = tested on: Foxp3+ regulatory T cells; test: In vitro regulatory T cell (Foxp3+ Treg) production from human peripheral blood CD4 T cells; assay type: cell-based; conditions: anti-CD3/anti-CD28, TGFβ-1, IL-2, 2.5 μM, 7 days
# Description: Human peripheral blood (AllCells) and phosphate buffered saline (PBS) were mixed in a ratio of 1:1 to prepare a mixture, followed by allowing the mixture to slowly rise so as not to be mixed into the upper layer of Histopaque (Sigma). After centrifugation at 350 g for 20 minutes, only the monocyte layer in the middle layer was collected and washed with HBSS (Hanks' Balanced Salt Solution, Gibco®). After washing with MACS buffer (Miltenyi Biotec) once more to obtain T-cells, positive selection (autoMACS seperator, Miltenyi Biotec) was performed with CD4 Microbeads (Miltenyi Biotec). The T-cells collected by the above method were prepared by resuspending the cells in RPMI-fetal bovine serum (FBS) 10%+2-ME (mercaptoethanol) medium at 5×10^5/ml. For T-cell activation, 10 μg/ml anti-CD3 (eBioscience™) was dispensed by 150 μl into a 48-well plate, reacted in a cell incubator (37° C., 5% CO2 incubator) for 3 hours, and washed with phosphate buffered saline to prepare the plate. 250 μl of resuspended T-cells was dispensed onto the prepared plate, and each well was treated with 2 μg/ml of anti-CD28 (eBioscience™), 5 ng/ml of TGFβ-1 (R&D systems), and 50 U/ml of IL-2 (Miltenyi Biotec). Each 5 μl of compounds at a concentration of 2.5 μM diluted in RPMI+2ME medium was used for treatment, followed by culturing the same in a cell incubator (37° C., 5% CO2 incubator) for 7 days. As a control, 5 μl of 0.05% dimethylsulfoxide (DMSO)/RPMI medium was used for treatment. After 7 days, in order to confirm effects of producing regulatory T cells, the cultured cells were recovered to determine the presence of Foxp3 protein.
# The recovered cells were placed in a 5 ml FACS tube (BD Falcon) and washed with 1 ml of phosphate buffered saline. The cells were resuspended in 0.1 ml of FACS buffer (0.1% NaN3, 1% FBS) and treated with 1 μg of human immunoglobulin G (Human IgG, Sigma) to prevent non-specific binding of the antibody. After reacting at 4° C. for 15 minutes, the cells were washed with FACS buffer. Then, 1 ml of Fixation/Permeabilization solution (eBioscience™) was added to the FACS tube containing each sample, followed by reaction at 4° C. for 1 hour. Thereafter, the product was washed twice with a Permeabilization buffer (eBioscience™). Then, 0.25 μg of Foxp3 monoclonal antibody (eBioscience™) was used for treatment, followed by staining the sample for 4 to 30 minutes. The cells were washed twice with the permeabilization buffer, suspended in 0.3 ml of FACS buffer, and measured by flow cytometry.
compound,measurement,setting,value
"O=C(Cc1c[nH]c2ccc(Cl)cc12)Nc1ccc(Cl)c(F)n1 [Compound 26, 2-(5-chloro-1H-indol-3-yl)-N-(5-chloro-6-fluoropyridin-2-yl)acetamide]",expression level of Foxp3 in spinal cord lesions,[1],significantly increased
same,expression level of IFN-γ in the spinal cord lesion,[1],significantly reduced
same,expression level of IL-1β in the spinal cord lesion,[1],significantly reduced
same,expression level of IL-10 in spinal cord lesions,[1],significantly increased
same,expression level of IL-17A in the spinal cord lesion,[1],significantly reduced
same,number of tumors in the colon,[2],3.17±1.17
same,graft-versus-host disease severity index,[3],2.80±0.80
same,expression level of IL-6 in lung tissue,[4],significantly reduced
same,expression level of IL-10 in lung tissue,[4],significantly increased
same,expression level of IL-17A in lung tissue,[4],significantly reduced
same,Serum FITC-dextran,[5],significantly reduced
same,inflammatory bowel disease severity index,"[6]; 2nd to 11th day, 10th day of the experiment",statistically significant therapeutic effects
same,colon weight:length ratio (intestinal inflammation),[6]; 15th day of the experiment,significantly suppressed
same,generation of Foxp3+ regulatory T cells,[7],promoted
